Assays:
[1] = tested on: white wine grape cultivar 'Semillon'; experiment: Semillon field experiment: standard maturity berry measurements at harvest; format: in vivo, grapevine; details: for Baume: Semillon berries at harvest (54 days after veraison); for Titratable Acidity / pH: Semillon berries at harvest
Method: (§1) A replicated field experiment was conducted on the white wine grape cultivar ‘Semillon’ in the Riverina growing region of New South Wales, Australia to test the effect of S-ABA on white grapes. Four treatments were tested: Untreated control, 200 ppm S-ABA applied at pre-veraison, 200 ppm S-ABA applied at veraison, and 200 ppm S-ABA applied during the post-veraison period (berry sugar level of 10-11 Baume (18-20° brix)). There were 4 replicates of each treatment and the experiment was laid out in a randomized complete block (RCB) design. S-ABA was applied using a commercial airblast sprayer. S-ABA was applied at a concentration of 200 ppm in a volume of approximately 2000 L/Ha (approximately 200 gallons/A) in order to achieve thorough and complete coverage of the grape bunches. A 20% S-ABA soluble granule formulation was utilized in the experiment. The commercial surfactant Agral was included at a rate of 10 ml/100 L spray. Applications of S-ABA were made at pre-veraison (approximately 3 weeks before veraison or berry softening), veraison, and during the post-veraison period when the grape sugar levels had reached approximately 10-11 Baume (18-20° brix). The 10-11 Baume application took place 36 days after the veraison application. Irrigation, summer pruning, insecticide/fungicides and other routine vine management practices were the same as those practiced commercially by the grower in the adjacent parts of the vineyard.
(§2) Grape samples were harvested at the time of commercial harvest for berry analysis and table wine production. For the standard maturity berry measurements, 12-20 bunches per replicate were sampled. Bunches were randomly selected from both sides of the vines. Samples were analyzed using standard analytical methods used by the grape and wine industry. For additional spectral analyses, samples of 100 berries from each treatment were collected prior to winemaking.

[2] = tested on: white wine grape cultivar 'Chardonnay'; experiment: Chardonnay grape tasting panel; format: in vivo, grapevine; details: Chardonnay grapes sampled at preharvest and at harvest; panel of two tasters; 200 ppm S-ABA
Method: (§3) A large block unreplicated field experiment was conducted on the white wine grape cultivar ‘Chardonnay’ in the Riverina growing region of New South Wales, Australia to test the effect of S-ABA on white grapes. Three treatments were tested: Untreated control, 200 ppm S-ABA applied at pre-veraison and 200 ppm S-ABA applied at veraison. Each block consisted of 4 rows and covered 0.4 Ha in size. S-ABA was applied using a commercial airblast sprayer. S-ABA was applied at a concentration of 200 ppm in a volume of approximately 1000 L/Ha (approximately 100 gallons/A) in order to achieve thorough and complete coverage of the grape bunches. A 20% S-ABA soluble granule formulation was utilized in the experiment. The commercial surfactant Kendeen 20 was included at a rate of 50 ml/100 L spray. Applications of S-ABA were made at pre-veraison (approximately 3 weeks before veraison or berry softening) and veraison. Irrigation, summer pruning, insecticide/fungicides and other routine vine management practices were the same as those practiced commercially by the grower in the adjacent parts of the vineyard.

[3] = tested on: white wine grape cultivar 'Semillon'; experiment: Semillon field experiment: spectral analysis of berries at harvest; format: in vivo, grapevine
Method: as §1, §2

[4] = tested on: white wine grape cultivar 'Chardonnay'; experiment: Chardonnay field experiment: spectral analysis of berries at harvest; format: in vivo, grapevine; details: for A280 / A320 / A420 / Est. of brown pigments / Total Flavonoids / Total Hydroxycinnamates / Total Phenolics: Chardonnay berries at harvest
Method: as §3
as §2, with “Grapes” for “Grape”

[5] = tested on: white wine grape cultivar 'Chardonnay'; experiment: Chardonnay wine descriptive analysis; format: in vivo, grapevine
Method: as §3
(§4) Wine was produced from the grapes from each of the S-ABA treatments. […]
(§5) Sensory analysis was conducted on the S-ABA-treated and untreated wines. A panel consisting of ten experienced wine tasters evaluated the wines for aroma and taste. […]

grapes = details: S-ABA application on grapes; Han et al. 1996; cited from earlier work
[6] = tested on: white wine grape cultivar 'Semillon'; experiment: Semillon grape tasting panel; format: in vivo, grapevine; details: Semillon grapes sampled at preharvest and at harvest; panel of three tasters; 200 ppm S-ABA
Method: as §1, with “Irrigation, summer pruning, insecticide/fungicides and other routine vine management practices were the same as those practiced commercially by the grower in the adjacent parts of the vineyard.” left out

[7] = tested on: white wine grape cultivar 'Semillon'; experiment: Semillon wine chemical (spectral) analysis; format: in vivo, grapevine
Method: as §1
(§6) Wine was produced from the grapes from each of the S-ABA treatments. Small lot primary fermentations were conducted and the wine was bottled. Triplicate ferments of each treatment were conducted using approximately 3×50 kg of grapes. Each replicate ferment contained an equal volume of grapes from each of the four field replicates. Grapes were harvested from the central panels within each replicate. All grapes were harvested from both sides of the vines from these panels. The grapes were transferred immediately to the experimental winery, protected from heat and treated with sulfur dioxide. A standard winemaking protocol used for small-scale replicated primary fermentations was followed. Following the fermentation, the wine was bottled.
(§7) Chemical analyses were conducted on the wines prepared from the various treatments in the field experiment using industry standard analytical methods.

[8] = tested on: white wine grape cultivar 'Chardonnay'; experiment: Chardonnay wine sensory analysis: straight judgment of difference test; format: in vivo, grapevine; details: All Chardonnay wines from the S-ABA treatments; ten tasters; with statistical significance
Method: as §3, §4, §5

red grapes = details: exogenous application to red grapes prior to harvest; literature; cited from earlier work
[9] = tested on: white wine grape cultivar 'Chardonnay'; experiment: Chardonnay field experiment: standard maturity berry measurements at harvest; format: in vivo, grapevine; details: for Baume: Chardonnay berries at harvest (26 days after veraison); for Titratable Acidity / pH: Chardonnay berries at harvest
Method: as §3
as §2, with “Grapes” for “Grape”

[10] = tested on: white wine grape cultivar 'Chardonnay'; experiment: Chardonnay wine chemical (spectral) analysis; format: in vivo, grapevine
Method: as §3
Wine was produced from the grapes from each of the S-ABA treatments. Small lot primary fermentations were conducted and the wine was bottled. […] ferments of each treatment were conducted using approximately 3×50 kg of grapes. Each replicate ferment contained an equal volume of grapes from entire panels of vines. All grapes were harvest from both sides of the vines from these panels. The grapes were transferred immediately to the experimental winery, protected from heat and treated with sulfur dioxide. A standard winemaking protocol used for small-scale replicated primary fermentations was followed. Following the fermentation, the wine was bottled.
as §7

grapevines = details: application of S-ABA; During and Broquedis 1980; cited from earlier work
[11] = tested on: white wine grape cultivar 'Semillon'; experiment: Semillon wine sensory analysis: straight judgment of difference test; format: in vivo, grapevine; details: for Statistically significant (difference from reference wine) / Number of tasters who selected as different from reference wine/Total number of tasters: Semillon wine; for Number of tasters who selected as different from reference wine/Total number of tasters: reference = untreated control
Method: as §1, §6
(§8) Sensory analysis was conducted on the treated and untreated wines. A panel consisting of nine experienced wine tasters evaluated the wines for aroma and taste. The wine grape cultivar was identified, but no information regarding the field treatments was identified to the tasters.
A straight judgment of difference test was conducted to determine if the wines were different from the untreated control. […] Therefore, these wines can be considered to be different from the reference wine, thereby implying a treatment effect.

[12] = tested on: white wine grape cultivar 'Semillon'; experiment: Semillon wine descriptive analysis; format: in vivo, grapevine; details: for Aroma (descriptor): untreated: low aroma, some fruit; for Color (descriptor): untreated: pale straw
Method: as §1, §6, §8
A wine descriptive analysis was also conducted for the Semillon wines prepared from the untreated control and from the S-ABA treatments. The panels provided descriptive terms to characterize the aroma, taste and color profile of each wine. The methodology used was based on survey-style collection with a thematic analysis to pull out the most consistent terms (Table 5).

[13] = 200 ppm S-ABA foliar spray applied at pre-veraison
[14] = 200 ppm S-ABA foliar spray applied at veraison
[15] = 200 ppm S-ABA applied at pre-veraison
[16] = 200 ppm S-ABA applied at veraison
[17] = 200 ppm S-ABA applied post-veraison (11 Baume)
[18] = Semillon berries at harvest, 200 ppm S-ABA applied at pre-veraison
[19] = Semillon berries at harvest, 200 ppm S-ABA applied at veraison
[20] = Semillon berries at harvest, 200 ppm S-ABA applied post-veraison (11 Baume)
[21] = spectral analysis, 200 ppm S-ABA treatments

For “(S)-5-(1-hydroxy-2,6,6,-trimethyl-4-oxo-2-cyclohexen-1-yl)-3-methyl-(2Z,4E)-pentadienoic acid [S-ABA]”, the Baume [1, 13] was 11.6, the Baume [1, 14] was 11.7 and the Baume ([1]; 200 ppm S-ABA foliar spray applied post-veraison (11 Baume)) was 11.6. For the same substance, the “Titratable Acidity” value [1, 15] was 4.5, the pH [1, 15] was 3.57 and the “Titratable Acidity” value [1, 16] was 4.5. For the same substance, the pH [1, 16] was 3.56, the “Titratable Acidity” value [1, 17] was 4.0 and the pH [1, 17] was 3.61. For the same substance, the “Effect on berry sugar content (Baume), pH, titratable acidity or bunch weight” value ([1]; Semillon, 200 ppm S-ABA treatments) was “did not consistently affect”, the “Flavor of S-ABA treated grapes vs untreated grapes” value [2] was “notable differences in flavor” and the A280 [3, 18] was 6.62. The A320 [3, 18] was 2.642, the A420 [3, 18] was 0.465 and the “Est. of brown pigments” value [3, 18] was 0.47 a.u. The “Total Flavonoids” value [3, 18] was 1.80 a.u, the “Total Hydroxycinnamates” value [3, 18] was 1.24 a.u and the “Total Phenolics” value [3, 18] was 2.62 a.u. The A280 [3, 19] was 6.85, the A320 [3, 19] was 2.713 and the A420 [3, 19] was 0.471. For the same substance, the “Est. of brown pigments” value [3, 19] was 0.47 a.u, the “Total Flavonoids” value [3, 19] was 1.98 a.u and the “Total Hydroxycinnamates” value [3, 19] was 1.31 a.u. For the same substance, the “Total Phenolics” value [3, 19] was 2.85 a.u, the A280 [3, 20] was 6.47 and the A320 [3, 20] was 2.59. The A420 [3, 20] was 0.461, the “Est. of brown pigments” value [3, 20] was 0.46 a.u and the “Total Flavonoids” value [3, 20] was 1.68 a.u. The “Total Hydroxycinnamates” value [3, 20] was 1.19 a.u, the “Total Phenolics” value [3, 20] was 2.47 a.u and the “Effect on phenolic composition of the berries” value ([3]; Semillon berries at harvest, 200 ppm S-ABA treatments) was “tended to increase”. For the same substance, the “Total phenolics, hydroxycinnamates, total flavonoids and estimated brown pigments (chemical analysis)” value ([3]; Semillon berries, 200 ppm S-ABA treatments vs untreated) was “some differences”, the A280 [4, 15] was 17.37 and the A320 [4, 15] was 3.53. For the same substance, the A420 [4, 15] was 0.530, the “Est. of brown pigments” value [4, 15] was 0.530 a.u and the “Total Flavonoids” value [4, 15] was 11.96 a.u. The “Total Hydroxycinnamates” value [4, 15] was 2.13 a.u, the “Total Phenolics” value [4, 15] was 13.37 a.u and the A280 [4, 16] was 14.07. For the same substance, the A320 [4, 16] was 3.38, the A420 [4, 16] was 0.567 and the “Est. of brown pigments” value [4, 16] was 0.567 a.u. For the same substance, the “Total Flavonoids” value [4, 16] was 8.76 a.u, the “Total Hydroxycinnamates” value [4, 16] was 1.98 a.u and the “Total Phenolics” value [4, 16] was 10.07 a.u. The “Total phenolics, hydroxycinnamates, total flavonoids and estimate of brown pigments (chemical analysis)” value ([4]; Chardonnay berries, 200 ppm S-ABA treatments vs untreated) was “some differences”, the “Descriptive characteristics compared to the Untreated” value [5, 15] was “More intense aroma, slightly more mineral and bitterness” and the “Effect on fruit aroma and acidic taste in the wine” value ([5]; 200 ppm S-ABA treatments) was “increased or intensified”. The “Berry and cluster weight” value (grapes) was “increase berry and cluster weight”, the “Flavor of S-ABA treated grapes vs untreated grapes” value [6] was “notable differences in flavor” and the “Total Hydroxycinnamates” value [7, 15] was 0.8700 a.u. For the same substance, the “Total Hydroxycinnamates” value ([7]; 200 ppm S-ABA applied at veraison, untreated control vs. veraison P = 0.0604) was 0.9033 a.u, the “Total Hydroxycinnamates” value [7, 17] was 0.8267 a.u and the “Levels of hydroxycinnamates in S-ABA treated wines” value [7, 21] was “higher levels of hydroxycinnamates”. For the same substance, the “Judgment of difference from the reference wine (untreated control)” value [8] was “judged to be different from the reference wine”, the “Accumulation of anthocyanins and red color of grape berry skins” value (red grapes) was “increase the accumulation of anthocyanins and increase the red color” and the Baume [9, 13] was 14.3. For the same substance, the Baume [9, 14] was 14.4, the “Titratable Acidity” value [9, 15] was 6.2 and the pH [9, 15] was 3.73. For the same substance, the “Titratable Acidity” value [9, 16] was 6.9, the pH [9, 16] was 3.60 and the “Effect on berry sugar content (Baume), pH, titratable acidity or bunch weight” value ([9]; Chardonnay, 200 ppm S-ABA treatments) was “did not consistently affect”. The “Total Hydroxycinnamates” value [10, 15] was 3.14 a.u, the “Total Phenolics” value [10, 15] was 2.55 a.u and the “Total Hydroxycinnamates” value [10, 16] was 3.19 a.u. For the same substance, the “Total Phenolics” value [10, 16] was 2.97 a.u, the “Balance of hydroxycinnamates and phenolics in S-ABA treated wines” value [10, 21] was “different balance of hydroxycinnamates and phenolics” and the “Stomatal resistance in grapevines” value (grapevines) was “increase stomatal resistance”. For the same substance, the “Judgment of difference from the reference wine (untreated control)” value ([11]; All Semillon wines from the S-ABA treatments, nine tasters, with statistical significance) was “judged to be different from the reference wine”, the “Statistically significant (difference from reference wine)” value [11, 15] was “Yes” and the “Number of tasters who selected as different from reference wine/Total number of tasters” value [11, 15] was 8/9. For the same substance, the “Statistically significant (difference from reference wine)” value [11, 16] was “Yes”, the “Number of tasters who selected as different from reference wine/Total number of tasters” value [11, 16] was 8/9 and the “Statistically significant (difference from reference wine)” value [11, 17] was “Yes”. The “Number of tasters who selected as different from reference wine/Total number of tasters” value [11, 17] was 8/9, the “Taste (descriptor)” value ([12]; 200 ppm S-ABA applied at pre-veraison, untreated: citrus, acidic) was “Much more acidic” and the “Aroma (descriptor)” value [12, 15] was “More intense fruit”. For the same substance, the “Color (descriptor)” value [12, 15] was “Pale straw”, the “Aroma (descriptor)” value [12, 16] was “More intense fruit” and the “Aroma (descriptor)” value [12, 17] was “More intense fruit”. The “Color (descriptor)” value [12, 17] was “Pale straw” and the “Effect on fruit aroma and acidic taste of the wine” value ([12]; 200 ppm S-ABA treatments) was “increased or intensified”.

Reference: US8349768B2, “Use of abscisic acid to alter sensory characteristics of white grapes and wine” (Valent BioSciences Corporation, priority 2007, dated 2013)
